The text below walks through data of ChEMBL document CHEMBL5113527, “First-in-Class Hydrazide-Based HDAC6 Selective Inhibitor with Potent Oral Anti-Inflammatory Activity by Attenuating NLRP3 Inflammasome Activation” (J Med Chem, 2022).

Data set [1] deals with T1, Histone deacetylase 3 (Homo sapiens, UniProt O15379). The experiment in a line: Inhibition of recombinant HDAC3 (unknown origin) using Boc-Lys(acetyl)-AMC as substrate preincubated for 1 hr followed by substrate addition and measured after 2 hrs by fluorescence based microplate reader analysis.
T1 sequence (O15379 whole entry): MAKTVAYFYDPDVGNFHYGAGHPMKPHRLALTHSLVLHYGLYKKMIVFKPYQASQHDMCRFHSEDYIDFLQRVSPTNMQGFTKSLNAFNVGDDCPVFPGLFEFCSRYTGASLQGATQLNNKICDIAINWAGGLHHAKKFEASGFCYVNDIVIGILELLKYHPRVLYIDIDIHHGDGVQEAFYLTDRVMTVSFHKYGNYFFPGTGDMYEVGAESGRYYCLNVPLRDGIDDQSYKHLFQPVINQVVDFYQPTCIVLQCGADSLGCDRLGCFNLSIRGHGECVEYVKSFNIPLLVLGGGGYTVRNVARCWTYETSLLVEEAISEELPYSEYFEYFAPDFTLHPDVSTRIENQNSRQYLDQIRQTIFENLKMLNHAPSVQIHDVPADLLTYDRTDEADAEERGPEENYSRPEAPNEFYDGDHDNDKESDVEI
Another data set deals with T2, Histone deacetylase 7 (Homo sapiens, UniProt Q8WUI4).
T2 sequence (Q8WUI4 whole entry): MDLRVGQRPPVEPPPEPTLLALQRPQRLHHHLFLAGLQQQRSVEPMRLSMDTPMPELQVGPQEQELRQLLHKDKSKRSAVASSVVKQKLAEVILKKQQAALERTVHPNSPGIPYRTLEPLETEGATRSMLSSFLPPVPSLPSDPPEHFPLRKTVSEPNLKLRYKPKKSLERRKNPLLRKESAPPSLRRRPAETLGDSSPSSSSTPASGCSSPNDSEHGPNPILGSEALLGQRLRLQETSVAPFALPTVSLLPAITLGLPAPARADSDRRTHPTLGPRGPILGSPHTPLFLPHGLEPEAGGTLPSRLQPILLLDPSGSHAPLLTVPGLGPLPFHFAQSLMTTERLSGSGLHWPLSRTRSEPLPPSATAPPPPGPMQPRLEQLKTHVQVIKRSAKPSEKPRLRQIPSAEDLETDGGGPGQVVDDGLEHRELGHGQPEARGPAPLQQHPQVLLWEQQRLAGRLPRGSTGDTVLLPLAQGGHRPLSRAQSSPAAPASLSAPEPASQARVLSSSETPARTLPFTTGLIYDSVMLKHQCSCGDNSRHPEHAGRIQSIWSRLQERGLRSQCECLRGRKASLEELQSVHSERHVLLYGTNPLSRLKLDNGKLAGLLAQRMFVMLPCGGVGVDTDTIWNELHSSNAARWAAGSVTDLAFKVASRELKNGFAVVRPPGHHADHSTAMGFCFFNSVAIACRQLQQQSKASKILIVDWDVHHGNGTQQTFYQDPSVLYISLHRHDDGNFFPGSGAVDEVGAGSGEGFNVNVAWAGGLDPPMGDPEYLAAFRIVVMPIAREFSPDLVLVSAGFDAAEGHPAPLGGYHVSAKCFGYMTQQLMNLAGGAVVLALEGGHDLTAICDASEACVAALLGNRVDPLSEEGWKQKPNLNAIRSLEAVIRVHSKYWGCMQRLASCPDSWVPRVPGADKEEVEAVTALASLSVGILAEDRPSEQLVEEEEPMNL
Put plainly: Inhibition of recombinant HDAC7 (unknown origin) using Boc-Lys (trifluoroacetyl) AMC as substrate preincubated for 1 hr followed by substrate addition and measured after 2 hrs by fluorescence based microplate reader analysis.

A further data set concerns the target T3, Histone deacetylase 8 (Homo sapiens, UniProt Q9BY41).
T3 sequence (Q9BY41 whole entry): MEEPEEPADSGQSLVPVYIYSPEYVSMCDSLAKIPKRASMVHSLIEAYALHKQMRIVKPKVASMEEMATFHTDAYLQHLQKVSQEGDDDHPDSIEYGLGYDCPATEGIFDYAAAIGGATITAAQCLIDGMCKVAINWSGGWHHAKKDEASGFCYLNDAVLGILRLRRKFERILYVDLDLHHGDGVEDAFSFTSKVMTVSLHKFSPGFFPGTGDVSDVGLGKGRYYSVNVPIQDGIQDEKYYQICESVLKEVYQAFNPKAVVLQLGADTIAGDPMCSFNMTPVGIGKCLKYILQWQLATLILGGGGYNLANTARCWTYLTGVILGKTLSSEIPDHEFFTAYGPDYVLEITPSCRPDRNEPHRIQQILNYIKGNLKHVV
Put plainly: Inhibition of recombinant HDAC8 (unknown origin) using Boc-Lys (trifluoroacetyl) AMC as substrate preincubated for 1 hr followed by substrate addition and measured after 2 hrs by fluorescence based microplate reader analysis.

A short description of data set [2]: AUC(0 to infinity) in CD-1 mouse at 20 mg/kg, po measured after 0.083 to 24 hrs by LC-MS/MS analysis. In kind it is ADME, organism-based. Set-up: dose 20 mg/kg, time 0.083-24 hrs, route po. The following applies: in vivo.
Another data set concerns L02. Put plainly: Cytotoxicity against human HL7702 cells assessed as reduction in cell viability at 100 uM measured after 48 hrs by spectrophotometric analysis. The conditions noted are these: l02, 48 h. In kind it is toxicity, cell-based.
Data set [3] in a line: Ratio of drug concentration in brain to plasma of CD-1 mouse measured after 1 hrs by LC-MS/MS analysis. Type of data set: ADME.
Data set [4] deals with T1, Histone deacetylase 3. Put plainly: Binding affinity to recombinant HDAC3 (unknown origin) assessed as inhibition constant using Boc-Lys(acetyl)-AMC as substrate preincubated for 1 hr followed by substrate addition and measured after 2 hrs by fluorescence based microplate reader analysis.

pIC50, pKi: −log10 of the molar value.

`CCNNC(=O)c1ccc(CN2c3ccccc3C=Cc3ccncc32)cc1`: the negative-log IC50 (pIC50) on Histone deacetylase 3 [1] was 5.99; at Histone deacetylase 7, less than 5.30; on Histone deacetylase 8 it was less than 5.30. Besides, the AUC(0-inf) in data set [2] worked out at 10300 ng·h/mL. For the same molecule, in the data set with L02, the Activity entry is recorded as “Non-Toxic”. For the same molecule, in data set [3], the partition ratio (Kp) at 1 h came to 1.26. Moreover, the pKi on Histone deacetylase 3 [4] is 6.37.
